Assays:
Test in all cases: HMF sulfoconjugation assay
Type in all cases: biochemical
rSult1c2 = target: T1, rSult1c2 (Rattus norvegicus, UniProt Q9WUW8)
T1 construct: made in house; host or cells: Salmonella typhimurium TA1538 (cytosolic fraction, enzyme not purified)
Protocol: (§1) Cytosolic fractions containing individual SULT forms were prepared from transgenic S. typhimurium TA1538. Table S1 in the Supplementary Material provides a summary of the thirty SULTs used in the current study together with references describing the cloning of the respective S. typhimurium TA1538 strains. The expressed SULT forms are denoted with the prefixes h, m and r for human, mouse and rat enzymes, respectively. Bacteria were grown in Luria Broth medium containing ampicillin (100 µg/ml) by stirring for 8 h at 200 revolutions/min at 37 °C. The bacterial suspensions were centrifuged at 5,000 g for 10 min. The sediments were washed twice with 25 ml of 10 mM potassium phosphate buffer (pH 7.4)/50 mM potassium chloride (KCP buffer) and centrifuged again. The pellets were taken up in 800 µl KCP buffer and sonicated thrice for 15 s with 30 s pauses in between. The soluble fraction was attained by centrifuging for 1 h at 100,000 g. The supernatants (in the following termed cytosolic preparations) were frozen at −80 °C. The protein concentrations were determined according to a bicinchoninic acid (BCA) assay protocol. The SULT concentrations in the cytosolic preparations were estimated after electrophoretic separation and immunodetection using inclusion bodies of different SULT forms as standards (Teubner et al. [2007]). The preparation of SULT inclusion bodies and the immunodetection of SULTs is described in the Supplementary Material, which also contains a representative immunoblot of different amounts of rSult1a1standard and a cytosolic preparation of S. typhimurium expressing rSult1a1 (Fig. S1).
(§2) The reactions were conducted in mixtures of 100 µl containing 25–200 µg protein, 50 mM potassium phosphate buffer (pH 7.4), 5 mM MgCl2, 50 µM PAPS and different concentrations of HMF at 37 °C. Preliminary experiments ensured that measurements were recorded under ‘linear’ conditions, i.e., doubling of protein concentration or incubation time was doubling the amount of sulfate ester formed. The reactions were stopped after 30 min by adding 300 µl ice-cold 2-propanol, mixed and centrifuged at 15,000 g for 10 min.
(§3) SMF concentrations of the clear supernatants were analyzed by UPLC-MS/MS. The protocol was adapted from the quantification of SMF in plasma samples of HMF-treated mice (Monien et al. [2009]). In short, the supernatants were analyzed using a UPLC system (Waters) connected to a Quattro Premier XE tandem quadrupole mass spectrometer (Waters) using the negative electrospray ionization mode. Samples of 4 µl were injected into a HSS T3 column (1.8 µm, 2.1 × 100 mm; Waters) and eluted with an isocratic flow of 0.35 ml/min 10 mM ammonium acetate/methanol (95:5). The fragmentation reactions of SMF yielding two principal ions, the sulfate ion radical (m/z = 204.9 → 96.0) and the protonated sulfonate ion (m/z = 204.9 → 81.0) were monitored. The tune parameters were as follows: temperature of the electrospray source 120 °C; desolvation temperature 475 °C; desolvation gas nitrogen (800 l/h); cone gas nitrogen (100 l/h); collision gas argon (indicated cell pressure ~5 × 10^−3 mbar). For the fragmentation of SMF, collision energies were 20 and 23 eV for the transitions m/z = 204.9 → 81.0 and m/z = 204.9 → 96.0, respectively. The dwell time was set to 100 ms, and capillary voltage was set to 0.35 kV. The cone and RF1 lens voltages were 32 and 0.2 V, respectively. SMF was quantified using an external calibration line that was linear in the concentration range of 1.0 nM (4 fmol/injection) to 2,500 (10 pmol/injection) SMF (r ^2 ≥ 0.99). Data acquisition and handling were performed with MassLynx 4.1 software (Waters). The limit of detection (LOD) for this technique of 2.5 nM SMF has been reported (Monien et al. [2009]). In the current study, this corresponds to 10 fmol SMF per injection or a reaction rate of 0.5 pmol SMF/mg/min.

hSULT2B1b = target: T2, hSULT2B1b (Homo sapiens, UniProt O00204)
T2 construct: made in house; host or cells: Salmonella typhimurium TA1538 (cytosolic fraction, not purified)
T2 sequence (O00204 1-365): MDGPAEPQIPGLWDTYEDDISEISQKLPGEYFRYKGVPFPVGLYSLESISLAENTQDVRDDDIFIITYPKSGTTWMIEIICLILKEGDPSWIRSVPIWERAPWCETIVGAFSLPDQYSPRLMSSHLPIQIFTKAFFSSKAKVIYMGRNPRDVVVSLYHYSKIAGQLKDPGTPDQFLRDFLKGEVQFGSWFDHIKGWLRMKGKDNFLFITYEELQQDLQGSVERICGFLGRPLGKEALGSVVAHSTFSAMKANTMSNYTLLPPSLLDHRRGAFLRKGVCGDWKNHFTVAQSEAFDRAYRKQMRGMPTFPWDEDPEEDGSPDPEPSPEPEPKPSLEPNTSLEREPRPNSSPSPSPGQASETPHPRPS
Protocol: as §1, §2, §3

mSult1e1 = target: T3, mSult1e1 (Mus musculus, UniProt P49891)
T3 construct: made in house; host or cells: Salmonella typhimurium TA1538 (cytosolic fraction, enzyme not purified)
T3 sequence (P49891 1-295): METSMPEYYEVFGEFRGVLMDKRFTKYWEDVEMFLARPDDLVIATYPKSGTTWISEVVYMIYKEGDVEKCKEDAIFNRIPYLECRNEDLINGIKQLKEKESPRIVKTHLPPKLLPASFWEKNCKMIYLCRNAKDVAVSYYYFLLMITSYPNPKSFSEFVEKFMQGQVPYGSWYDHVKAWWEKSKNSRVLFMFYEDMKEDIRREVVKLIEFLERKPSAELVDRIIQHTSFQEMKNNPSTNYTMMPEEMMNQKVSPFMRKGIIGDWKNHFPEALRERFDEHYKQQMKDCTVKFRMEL
Protocol: as §1, §2, §3

mSult1b1 = target: T4, mSult1b1 (Mus musculus, UniProt Q9QWG7)
T4 construct: made in house; host or cells: Salmonella typhimurium TA1538 (cytosolic fraction, enzyme not purified)
T4 sequence (Q9QWG7 whole entry): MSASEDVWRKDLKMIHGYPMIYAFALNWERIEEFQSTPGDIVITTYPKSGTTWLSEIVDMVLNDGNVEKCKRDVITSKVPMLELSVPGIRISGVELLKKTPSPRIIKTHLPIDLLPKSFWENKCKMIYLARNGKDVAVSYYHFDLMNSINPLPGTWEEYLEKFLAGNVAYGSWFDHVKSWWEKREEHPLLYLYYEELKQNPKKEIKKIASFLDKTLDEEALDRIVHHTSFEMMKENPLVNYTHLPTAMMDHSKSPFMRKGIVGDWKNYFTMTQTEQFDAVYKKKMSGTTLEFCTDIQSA
Protocol: as §1, §2, §3

hSULT1A3 = target: T5, hSULT1A3 (Homo sapiens, UniProt P0DMM9)
T5 construct: made in house; host or cells: Salmonella typhimurium TA1538 (cytosolic fraction, not purified)
T5 sequence (P0DMM9 whole entry): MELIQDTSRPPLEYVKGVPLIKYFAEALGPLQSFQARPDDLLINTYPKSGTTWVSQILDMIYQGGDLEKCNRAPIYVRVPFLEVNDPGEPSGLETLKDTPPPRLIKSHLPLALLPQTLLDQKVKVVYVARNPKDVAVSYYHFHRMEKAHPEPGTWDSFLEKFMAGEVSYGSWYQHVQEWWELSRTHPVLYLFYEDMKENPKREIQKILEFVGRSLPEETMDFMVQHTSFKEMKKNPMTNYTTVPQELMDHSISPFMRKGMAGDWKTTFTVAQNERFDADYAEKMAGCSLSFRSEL
Protocol: as §1, §2, §3

[1] = HMF sulfoconjugation, Michaelis-Menten fit

T1 sequence (Q9WUW8 whole entry): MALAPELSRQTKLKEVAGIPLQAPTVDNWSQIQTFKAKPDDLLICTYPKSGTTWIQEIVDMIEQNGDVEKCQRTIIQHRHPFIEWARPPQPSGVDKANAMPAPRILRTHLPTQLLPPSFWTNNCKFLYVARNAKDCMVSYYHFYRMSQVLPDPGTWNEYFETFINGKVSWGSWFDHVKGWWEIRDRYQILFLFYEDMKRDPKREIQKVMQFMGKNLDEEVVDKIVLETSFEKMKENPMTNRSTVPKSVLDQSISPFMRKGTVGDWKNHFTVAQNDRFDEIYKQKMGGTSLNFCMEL

O=Cc1ccc(CO)o1 [HMF, 5-Hydroxymethylfurfural]
Rate of sulfoconjugation (rSult1c2; 0.1 mM HMF): <0.5 pmol/mg/min | Rate of sulfoconjugation (rSult1c2; 1 mM HMF): <0.5 pmol/mg/min | Rate of sulfoconjugation (rSult1c2; 10 mM HMF): 2.3 ± 0.2 pmol/mg/min | Rate of sulfoconjugation (rSult1c2; 100 mM HMF): 15.0 ± 1.1 pmol/mg/min | Rate of sulfoconjugation (hSULT2B1b; 0.1 mM HMF): <0.5 pmol/mg/min | Rate of sulfoconjugation (hSULT2B1b; 1 mM HMF): <0.5 pmol/mg/min | Rate of sulfoconjugation (hSULT2B1b; 10 mM HMF): <0.5 pmol/mg/min | Rate of sulfoconjugation (hSULT2B1b; 100 mM HMF): <0.5 pmol/mg/min | Rate of sulfoconjugation (mSult1e1; 0.1 mM HMF): 3.7 ± 0.3 pmol/mg/min | Rate of sulfoconjugation (mSult1e1; 1 mM HMF): 35.5 ± 2.6 pmol/mg/min | Rate of sulfoconjugation (mSult1e1; 10 mM HMF): 226 ± 9 pmol/mg/min | Rate of sulfoconjugation (mSult1e1; 100 mM HMF): 534 ± 52 pmol/mg/min | Rate of sulfoconjugation (mSult1b1; 0.1 mM HMF): 0.9 ± 0.1 pmol/mg/min | Rate of sulfoconjugation (mSult1b1; 1 mM HMF): 8.2 ± 0.1 pmol/mg/min | Rate of sulfoconjugation (mSult1b1; 10 mM HMF): 66.2 ± 6.8 pmol/mg/min | Rate of sulfoconjugation (mSult1b1; 100 mM HMF): 64.4 ± 5.0 pmol/mg/min | K M (mSult1b1; [1]): 9.5 ± 1.1 mM | Rate of sulfoconjugation (hSULT1A3; 0.1 mM HMF): 1.2 ± 0.1 pmol/mg/min | Rate of sulfoconjugation (hSULT1A3; 1 mM HMF): 12.1 ± 1.5 pmol/mg/min | Rate of sulfoconjugation (hSULT1A3; 10 mM HMF): 117 ± 12 pmol/mg/min | Rate of sulfoconjugation (hSULT1A3; 100 mM HMF): 406 ± 39 pmol/mg/min | K M (hSULT1A3; [1]): 16.7 ± 1.8 mM

Reference: publication PMC4710668, “Bioactivation of food genotoxicants 5-hydroxymethylfurfural and furfuryl alcohol by sulfotransferases from human, mouse and rat: a comparative study” (Archives of Toxicology, 2014)
